Active and inactive are the calls of the source. No rule for the calls is given here.
System: CCRIS mutagenicity, Ames/micronucleus/aberration tests
Test: CCRIS mutagenicity studies
Conditions: Test System: AMES SALMONELLA TYPHIMURIUM, Method: STANDARD PLATE
[1] = Strain/Indicator: TA100, Metabolic Activation: NONE
[2] = Strain/Indicator: TA98, Metabolic Activation: NONE
[3] = Strain/Indicator: TA98, Metabolic Activation: RAT, LIVER, S-9, AROCLOR 1254
[4] = Strain/Indicator: TA100, Metabolic Activation: RAT, LIVER, S-9, AROCLOR 1254
[5] = Strain/Indicator: TA102, Metabolic Activation: NONE
[6] = Strain/Indicator: TA102, Metabolic Activation: RAT, LIVER, S-9, AROCLOR 1254
[7] = Strain/Indicator: TA97, Metabolic Activation: NONE

Structure (SMILES): CCC(=O)NCc1ccccc1
- mutagenic call [1]: inactive; negative

Structure (SMILES): C=C(C)C(=O)OCCCCOC(=O)C(=C)C
- mutagenic call [2]: inactive; negative
- mutagenic call [3]: inactive; negative
- mutagenic call (Strain/Indicator: TA98, Metabolic Activation: RAT, LIVER, S-9, SODIUM PHENOBARBITAL): inactive; negative
- mutagenic call [1]: inactive; negative
- mutagenic call [4]: inactive; negative
- mutagenic call (Strain/Indicator: TA100, Metabolic Activation: RAT, LIVER, S-9, SODIUM PHENOBARBITAL): inactive; negative
- mutagenic call (Strain/Indicator: TA1535, Metabolic Activation: NONE): inactive; negative
- mutagenic call (Strain/Indicator: TA1535, Metabolic Activation: RAT, LIVER, S-9, AROCLOR 1254): inactive; negative
- mutagenic call (Strain/Indicator: TA1535, Metabolic Activation: RAT, LIVER, S-9, SODIUM PHENOBARBITAL): inactive; negative
- mutagenic call (Strain/Indicator: TA1537, Metabolic Activation: NONE): inactive; negative
- mutagenic call (Strain/Indicator: TA1537, Metabolic Activation: RAT, LIVER, S-9, AROCLOR 1254): inactive; negative
- mutagenic call (Strain/Indicator: TA1537, Metabolic Activation: RAT, LIVER, S-9, SODIUM PHENOBARBITAL): inactive; negative
- mutagenic call (Strain/Indicator: TA1538, Metabolic Activation: NONE): inactive; negative
- mutagenic call (Strain/Indicator: TA1538, Metabolic Activation: RAT, LIVER, S-9, AROCLOR 1254): inactive; negative
- mutagenic call (Strain/Indicator: TA1538, Metabolic Activation: RAT, LIVER, S-9, SODIUM PHENOBARBITAL): inactive; negative

Structure (SMILES): Cc1cccc(C)c1C
- mutagenic call (Strain/Indicator: TA97A, Metabolic Activation: NONE): active; positive
- mutagenic call (Strain/Indicator: TA97A, Metabolic Activation: RAT, LIVER, S-9, AROCLOR 1254): inactive; negative
- mutagenic call [2]: active; positive
- mutagenic call [3]: inactive; negative
- mutagenic call [1]: active; positive
- mutagenic call [4]: inactive; negative
- mutagenic call [5]: active; positive
- mutagenic call [6]: inactive; negative

Structure (SMILES): O=C/C(=C(\Cl)C(=O)O)C(Cl)Cl
- mutagenic call [7]: inactive; negative
- mutagenic call (Strain/Indicator: TA97, Metabolic Activation: RAT, LIVER, S-9, PHENOBARBITAL): inactive; negative
- mutagenic call [2]: inactive; negative
- mutagenic call (Strain/Indicator: TA98, Metabolic Activation: RAT, LIVER, S-9, PHENOBARBITAL): inactive; negative
- mutagenic call [1]: active; positive
- mutagenic call (Strain/Indicator: TA100, Metabolic Activation: RAT, LIVER, S-9, PHENOBARBITAL): inactive; negative

Structure (SMILES): O=C(Nc1cccc(F)c1)c1csc([N+](=O)[O-])c1
- mutagenic call [2]: active; positive
- mutagenic call [1]: active; positive

Structure (SMILES): OCc1ccc(C(F)(F)F)cc1
- mutagenic call [1]: inactive; negative

Structure (SMILES): Clc1cccnc1Cl
- mutagenic call [7]: inactive; negative
- mutagenic call (Strain/Indicator: TA97, Metabolic Activation: RAT, LIVER, S-9, AROCLOR 1254): active; positive
- mutagenic call [2]: inactive; negative
- mutagenic call [3]: inactive; negative
- mutagenic call [1]: inactive; negative
- mutagenic call [5]: inactive; negative
- mutagenic call [6]: inactive; negative

— PubChem BioAssay AID1259407 (Chemical Carcinogenesis Research Information System (CCRIS), 2018)
